Values joined by “and” are separate entries in the source; they are usually repeats but may differ in a detail not shown here. Identical values can stand only once. Like-named read-outs stand apart in the source and are kept apart here.
What was measured:
[1] = Metabolic stability, pooled human cryopreserved hepatocyte incubations; details: human, hepatocytes; for CLint scaled at 0.5 µM: Intrinsic clearance, pHHeps, alternative hepatocyte cell density 99x10^6 hepatocytes per gram liver; for half-life at 0.5 µM: T1/2 (min), pHHeps 0.25 million cells mL^−1, 0.5 µM, 37 °C, n ≥ 3 ± SD
[2] = system: pooled human cryopreserved hepatocytes (pHHeps); experiment: as above; details: for Predicted In Vivo Hepatic Clearance, CLH: from pHHeps CLint, well-stirred model with plasma fu, Q 21 mL min^−1 kg^−1
[3] = Plasma protein binding by equilibrium dialysis; format: in vitro ADME, human; details: for fraction unbound at 5 h, 10 µg mL^−1: human, pooled human plasma, pH 7.4, equilibrium dialysis 5 h, 37 °C
[4] = Metabolic stability, pooled human liver microsome incubations; details: for Predicted In Vivo Hepatic Clearance, CLH: from pHLM CLint, well-stirred model with plasma fu, Q 21 mL min^−1 kg^−1; for CLint scaled at 0.5 µM / half-life at 0.5 µM: human, microsomes; for CLint scaled at 0.5 µM: pH 7.4, Intrinsic clearance; for half-life at 0.5 µM: pH 7.4, T1/2 (min), pHLM 0.5 mg mL^−1, 0.5 µM, NADPH, 37 °C; for half-life at 0.5 µM / Microsomal Intrinsic Clearance, CLint micr: n ≥ 3 ± SD
[5] = Short-term plasma stability with and without esterase inhibitors; details: 37 °C; for remaining at 3 h, 5 µM / remaining at 5 h: human, pH 7.4, Parent Compound Remaining (%)
[6] = pHHeps, 99x10^6 hepatocytes per gram liver
[7] = 10 µg mL^−1, read-out: PPB (%) (converted)
[8] = plasma, read-out: Fraction Unbound (fu)
[9] = pHLM, alternative microsomal scaling factor 32 mg microsomal protein per gram liver
[10] = pHLM, alternative microsomal scaling factor 45 mg microsomal protein per gram liver
[11] = pHLM, scaling factor 32 mg microsomal protein per gram liver
[12] = pHLM, scaling factor 45 mg microsomal protein per gram liver
[13] = Esterase Inhibitors, pH 7.4, BNPP and PMSF 500 µM each
[14] = plasma, No Esterase Inhibitors, pH 7.4, pooled human plasma

SMILES	CLint scaled at 0.5 µM [1] [mL/min/kg]	half-life at 0.5 µM [1] [min]	Predicted In Vivo Hepatic Clearance, CLH [2]	Hepatic extraction ratio, EH ([2]; from pHHeps incubations)	Hepatic extraction ratio, EH [2, 6]	Predicted in vivo hepatic clearance, CLH [2, 6] [mL/min/kg]	% parent compound remaining, Average ([2]; pHHeps, 3 min) [%]	% parent compound remaining, Average ([2]; pHHeps, 6 min) [%]	% parent compound remaining, Average ([2]; pHHeps, 9 min) [%]	% parent compound remaining, Average ([2]; pHHeps, 15 min) [%]	% parent compound remaining, Average ([2]; pHHeps, 30 min) [%]	% parent compound remaining, Average ([2]; pHHeps, 45 min) [%]	% parent compound remaining, Average ([2]; pHHeps, 60 min) [%]	fraction unbound at 5 h, 10 µg mL^−1 [3, 7]	fraction unbound at 5 h, 10 µg mL^−1 [3, 8]	Predicted In Vivo Hepatic Clearance, CLH [4] [mL/min/kg]	Hepatic extraction ratio, EH ([4]; from pHLM incubations)	CLint scaled at 0.5 µM [4, 9] [mL/min/kg]	CLint scaled at 0.5 µM [4, 10] [mL/min/kg]	half-life at 0.5 µM [4] [min]	further results
COC(=O)[C@@H](NC(=O)c1nn(Cc2ccc(F)cc2)c2ccccc12)C(C)C [(S)-AMB-FUBINACA (1), methyl [1-(4-fluorobenzyl)-1H-indazole-3-carbonyl]valinate]	2980	2.5 ± 0.55	15.52 ± 0.85 mL/min/kg	0.74 ± 0.041	0.72 ± 0.042	15.21 ± 0.88	37.0	18.7	14.7	6.2	1.4	1.1	0.8	0.019	0.019 ± 0.0008	15.27 ± 0.14	0.73 ± 0.006	1790	2520	0.6 ± 0.02	recovery (total peak area in dialysed samples vs 4 °C samples) ([3]; PPB thermal stability control, 5 h): 77 ± 4.4%; % parent compound remaining, Average ([4]; pHLM, 3 min): 3.8%; % parent compound remaining, Average ([4]; pHLM, 6 min): 0.7%; % parent compound remaining, Average ([4]; pHLM, 9 min): 0.2%; % parent compound remaining, Average ([4]; pHLM, 15 min): 0.1%; % parent compound remaining, Average ([4]; pHLM, 30 min): 0.3%; Microsomal Intrinsic Clearance, CLint micr ([4]; pHLM): 2.182 ± 0.071 mL min^−1 mg Microsomal Protein^−1; Hepatic extraction ratio, EH [4, 11]: 0.62 ± 0.008; Predicted in vivo hepatic clearance, CLH [4, 11]: 12.99 mL/min/kg; Predicted in vivo hepatic clearance, CLH [4, 12]: 14.60 mL/min/kg; Parent Compound Remaining (%), Esterase Inhibitors ([5]; 5 h, pH 7.4, BNPP and PMSF 500 µM each): 93.5 ± 0.1%; Parent Compound Remaining (%), No Esterase Inhibitors ([5]; 5 h, pH 7.4, pooled human plasma): 85.9 ± 4.0%; remaining at 3 h, 5 µM [5, 13]: 96.1 ± 1.6%; remaining at 5 h ([5]; Esterase Inhibitors, 5 h, pH 7.4, BNPP and PMSF 500 µM each): 94 ± 0.1%; remaining at 3 h, 5 µM [5, 14]: 96.6 ± 3.8%; remaining at 5 h ([5]; plasma, No Esterase Inhibitors, 5 h, pH 7.4, pooled human plasma): 86 ± 4%
COC(=O)[C@@H](NC(=O)c1nn(Cc2ccc(F)cc2)c2ccccc12)C(C)(C)C [(S)-MDMB-FUBINACA (6)]	275	26 ± 5	1.39 mL/min/kg and 1.39 ± 0.27 mL/min/kg	0.07 and 0.07 ± 0.013	0.06 ± 0.012	1.29 ± 0.25	90.3	73.3	80.1	73.3	38.8	17.3	9.1	0.005	0.005 ± 0.0008	0.87 ± 0.18	0.04 ± 0.009	111	156	11 ± 2.4	% parent compound remaining, Average ([4]; pHLM, 3 min): 70.2%; % parent compound remaining, Average ([4]; pHLM, 6 min): 64.2%; % parent compound remaining, Average ([4]; pHLM, 9 min): 55.8%; % parent compound remaining, Average ([4]; pHLM, 15 min): 34.3%; % parent compound remaining, Average ([4]; pHLM, 30 min): 16.4%; Microsomal Intrinsic Clearance, CLint micr ([4]; pHLM): 0.135 ± 0.030 mL min^−1 mg Microsomal Protein^−1; Hepatic extraction ratio, EH [4, 11]: 0.03 ± 0.006; Predicted in vivo hepatic clearance, CLH [4, 11]: 0.54 ± 0.12 mL/min/kg; Hepatic extraction ratio, EH [4, 12]: 0.04 ± 0.008; Predicted in vivo hepatic clearance, CLH [4, 12]: 0.75 ± 0.16 mL/min/kg; remaining at 3 h, 5 µM [5, 13]: 91.6 ± 2.2%; remaining at 3 h, 5 µM [5, 14]: 94.2 ± 6.3%
